# Assay results as given in ChEMBL document CHEMBL3039007, “Structure-based identification of OATP1B1/3 inhibitors” (Mol Pharmacol, 2013).
# Assays:
# [1] = molecular target: T1, Solute carrier organic anion transporter family member 1B1 (Homo sapiens, UniProt Q9Y6L6); conditions: chinese hamster, cho, 10 µM
# T1 sequence (Q9Y6L6 whole entry): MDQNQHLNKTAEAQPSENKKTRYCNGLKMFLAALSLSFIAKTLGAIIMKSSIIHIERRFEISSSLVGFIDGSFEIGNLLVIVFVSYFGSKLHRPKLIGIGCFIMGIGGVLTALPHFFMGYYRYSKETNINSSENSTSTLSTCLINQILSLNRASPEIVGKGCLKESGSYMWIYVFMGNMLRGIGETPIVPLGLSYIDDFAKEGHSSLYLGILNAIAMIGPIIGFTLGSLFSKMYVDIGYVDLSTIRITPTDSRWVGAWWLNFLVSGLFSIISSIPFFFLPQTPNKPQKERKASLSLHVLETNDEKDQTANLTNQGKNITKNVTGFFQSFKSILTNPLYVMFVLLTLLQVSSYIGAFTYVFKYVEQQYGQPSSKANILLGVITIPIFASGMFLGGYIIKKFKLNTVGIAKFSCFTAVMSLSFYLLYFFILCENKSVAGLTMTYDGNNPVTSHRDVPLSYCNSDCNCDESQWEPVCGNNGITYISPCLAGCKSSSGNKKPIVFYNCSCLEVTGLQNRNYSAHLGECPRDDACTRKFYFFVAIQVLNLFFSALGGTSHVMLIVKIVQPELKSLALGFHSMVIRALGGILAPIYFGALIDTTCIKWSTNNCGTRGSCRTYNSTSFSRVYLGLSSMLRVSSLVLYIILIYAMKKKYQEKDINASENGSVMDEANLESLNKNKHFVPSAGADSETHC
# [2] = molecular target: T2, Solute carrier organic anion transporter family member 1B3 (Homo sapiens, UniProt Q9NPD5); conditions: chinese hamster, cho, 10 µM
# T2 sequence (Q9NPD5 whole entry): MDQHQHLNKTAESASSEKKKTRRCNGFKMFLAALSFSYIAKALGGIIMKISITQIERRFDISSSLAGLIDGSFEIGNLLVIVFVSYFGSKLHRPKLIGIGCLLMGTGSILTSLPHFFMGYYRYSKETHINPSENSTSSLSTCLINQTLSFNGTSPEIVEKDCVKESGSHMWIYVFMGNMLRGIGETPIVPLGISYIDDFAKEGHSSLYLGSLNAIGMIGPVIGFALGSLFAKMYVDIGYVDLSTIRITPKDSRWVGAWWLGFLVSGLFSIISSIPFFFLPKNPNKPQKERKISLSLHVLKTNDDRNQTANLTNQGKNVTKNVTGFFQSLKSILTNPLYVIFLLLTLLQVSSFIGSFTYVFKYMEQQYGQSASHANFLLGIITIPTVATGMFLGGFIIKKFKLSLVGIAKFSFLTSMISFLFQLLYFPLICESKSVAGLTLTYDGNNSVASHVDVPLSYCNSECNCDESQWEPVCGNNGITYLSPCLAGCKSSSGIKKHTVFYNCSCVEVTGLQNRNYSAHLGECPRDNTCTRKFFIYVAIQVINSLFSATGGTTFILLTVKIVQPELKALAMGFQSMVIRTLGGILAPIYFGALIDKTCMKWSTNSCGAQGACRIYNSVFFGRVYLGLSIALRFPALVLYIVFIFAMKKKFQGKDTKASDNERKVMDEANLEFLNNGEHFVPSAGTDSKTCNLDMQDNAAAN
SMILES,residual activity [1] [%],residual activity [2] [%]
CC(=O)O[C@@H]1C[C@H]2C(C)(C)C(=O)C=C[C@]2(C)[C@H]2CC[C@@]3(C)[C@H](c4ccoc4)OC(=O)[C@H]4O[C@]43[C@@]21C [GEDUNIN],65.45,105.4
CO/N=C1\CN(c2nc3c(cc2F)c(=O)c(C(=O)O)cn3C2CC2)CC1CN.CS(=O)(=O)O (stereo not given) [GEMIFLOXACIN MESYLATE],102.7,108.8
CN[C@@H]1[C@@H](O)[C@@H](O[C@@H]2[C@@H](O)[C@H](O[C@H]3O[C@H]([C@@H](C)O)[C@@H](O)[C@H](O)[C@H]3N)[C@@H](N)C[C@H]2N)OC[C@]1(C)O [GENETICIN],83.57,105.6
COc1cc(O)c2c(=O)cc(-c3ccc(O)cc3)oc2c1 [GENKWANIN],116.7,107
CN(C)c1ccc(C(=C2C=CC(=[N+](C)C)C=C2)c2ccc(N(C)C)cc2)cc1.[Cl-] [GENTIAN VIOLET],109.6,92.5
O=C(O)c1cc(O)ccc1O [GENTISIC ACID],84.57,104
CCCCCC/C=C\CCCCCCCc1cccc(O)c1C(=O)O [GINGKOLIC ACID],135.9,93.22
"COc1cc(O)c2c(=O)cc(-c3ccc(OC)c(-c4c(O)cc(O)c5c(=O)cc(-c6ccc([O-])cc6)oc45)c3)oc2c1.[K+] [GINKGETIN, K salt]",46.45,46.72
C[C@@H]1C(=O)O[C@H]2C[C@@]34[C@H]5C[C@@H](C(C)(C)C)[C@]36[C@@H](OC(=O)[C@@H]6O)O[C@@]4(C(=O)O5)[C@]21O [GINKGOLIDE A],103.7,113.8
CC(=O)O[C@H]1CC[C@@]2(C)[C@H](CC[C@@H]3[C@@H]2CC[C@]2(C)[C@@H](C4=CC(=O)OC4)[C@@H](OC(C)=O)C[C@]32O)C1 [GITOXIGENIN DIACETATE],111.6,118.5
C[C@H]1O[C@@H](O[C@H]2[C@@H](O)C[C@H](O[C@H]3[C@@H](O)C[C@H](O[C@H]4CC[C@@]5(C)[C@H](CC[C@@H]6[C@@H]5CC[C@]5(C)[C@@H](C7=CC(=O)OC7)[C@@H](O)C[C@]65O)C4)O[C@@H]3C)O[C@@H]2C)C[C@H](O)[C@@H]1O [GITOXIN],103.4,102.2
O=C(OCC(O)CO)c1ccccc1Nc1ccnc2cc(Cl)ccc12 (stereo not given) [GLAFENINE],188.5,130.7
Cc1ccc(S(=O)(=O)NC(=O)NN2CC3CCCC3C2)cc1 (stereo not given) [GLICLAZIDE],106.3,113.3
OC[C@@H](O)[C@@H](O[C@@H]1O[C@H](CO)[C@@H](O)[C@H](O)[C@H]1O)[C@H](O)[C@@H](O)CO [GLUCITOL-4-GUCOPYANOSIDE],90.99,90.65
O=C1O[C@H](CO)[C@@H](O)[C@H](O)[C@H]1O [GLUCONOLACTONE],81.83,89.12
Cl.N[C@H]1C(O)O[C@H](CO)[C@@H](O)[C@@H]1O (stereo not given in full) [GLUCOSAMINE HYDROCHLORIDE],60.72,87.62
N[C@@H](CCC(=O)N[C@@H](CS)C(=O)NCC(=O)O)C(=O)O [GLUTATHIONE],67.16,87.82
CC(=O)O[C@@H]1[C@H]2CC[C@H]3[C@@](C)(O)[C@@H]4C[C@H](O)C(C)(C)[C@@]4(O)[C@H](O)C[C@@]13C[C@@]2(C)O [GRAYANOTOXIN I],79.68,95.98
COC1=CC(=O)C[C@@H](C)[C@]12Oc1c(Cl)c(OC)cc(OC)c1C2=O [GRISEOFULVIN],65.59,97.62
Cc1ccc(C(C)C)cc2c(C)ccc1-2 [GUAIAZULEN],49.11,50.28
CC(=O)O.N=C(N)N/N=C/c1c(Cl)cccc1Cl [GUANABENZ ACETATE],90.81,87.6
N=C(N)N [GUANIDINE],106.5,100
COP(=S)(OC)SCn1nnc2ccccc2c1=O [GUTHION],109.1,101.8

SMILES,residual activity [1] [%],residual activity [2] [%]
Cl.O=C(O)C1=CCCNC1 [GUVACINE HYDROCHLORIDE],115,108.7
Cc1cc(O)c(C=O)c(O)c1C(=O)O [HAEMATOMMIC ACID],54.98,81.5
"COc1cc2c(cc1OC)C(=O)c1ccc(OC)c(OC)c1OCC(=O)C2 [HAEMATOXYLONE, TETRAMETHYL-]",141.3,90.54
O=C(O)c1ccc(S(=O)(=O)N(Cl)Cl)cc1 [HALAZONE],97.95,84.35
CC1(C)O[C@@H]2C[C@H]3[C@@H]4CCC5=CC(=O)CC[C@]5(C)[C@@]4(F)[C@@H](O)C[C@]3(C)[C@]2(C(=O)CCl)O1 [HALCINONIDE],88.26,103.5
O=C(CCCN1CCC(O)(c2ccc(Cl)cc2)CC1)c1ccc(F)cc1 [HALOPERIDOL],92.15,111.7
COc1ccc2c3c([nH]c2c1)C(C)=NCC3 [HARMALINE],92.56,115.9
CC1=NCCc2c1[nH]c1cc(O)ccc21.Cl [HARMALOL HYDROCHLORIDE],84.87,106.1
Cc1nccc2c1[nH]c1ccccc12 [HARMAN],81.51,99.56
COc1ccc2c(c1)[nH]c1c(C)nccc12 [HARMINE],105.3,101.7
Cc1nccc2c1[nH]c1cc(O)ccc12.Cl [HARMOL HYDROCHLORIDE],91.2,124.7
CC(=O)O[C@H]1CC[C@@]2(C)[C@@H](CC[C@@H]3[C@@H]2CC(=O)[C@]2(C)[C@@H]4[C@H](C[C@@H]32)O[C@]2(CC[C@@H](C)CO2)[C@H]4C)C1 [HECOGENIN ACETATE],103.5,102
C[C@@H]1CC[C@@]2(OC1)O[C@H]1C[C@H]3[C@@H]4CC[C@@]5(C)C[C@@H](O)CC[C@]5(C)[C@H]4CC(=O)[C@]3(C)[C@H]1[C@@H]2C [HECOGENIN],41.82,105.1
C=C1C(=O)O[C@@H]2C[C@@]3(C)CCC[C@H](C)C3=C[C@H]12 [HELENINE],116,115.2
O=C1C=C2CC3(O)COc4c(ccc(O)c4O)C3=C2C=C1O (stereo not given) [HEMATEIN],65.79,73.22
Oc1cc2c(cc1O)[C@@H]1c3ccc(O)c(O)c3OC[C@]1(O)C2 [HEMATOXYLIN],88.87,91.69
ClC1=C(Cl)C2(Cl)C3C(Cl)C=CC3C1(Cl)C2(Cl)Cl (stereo not given) [HEPTACHLOR],98.77,131.9
CC(N)CCCC(C)(C)O.Cl (stereo not given) [HEPTAMINOL HYDROCHLORIDE],95.56,104.5
COc1ccc2ccc(=O)oc2c1 [HERNIARIN],148.3,104.5
COc1ccc([C@@H]2CC(=O)c3c(O)cc(O)cc3O2)cc1O [HESPERETIN],98.42,113.3
COc1ccc([C@@H]2CC(=O)c3c(O)cc(O[C@@H]4O[C@H](CO[C@@H]5O[C@@H](C)[C@H](O)[C@@H](O)[C@H]5O)[C@@H](O)[C@H](O)[C@H]4O)cc3O2)cc1O [HESPERIDIN],106.1,110.2
CC1(C)S[C@@H]2[C@H](N3C(=O)[C@@H](c4ccccc4)NC3(C)C)C(=O)N2[C@H]1C(=O)[O-].[K+] [HETACILLIN POTASSIUM],81.9,89.09
